Literature values in US20170014318A9, “Hair-growth-promoting solution containing chlorine dioxide, preparation methods and using methods thereof” (priority 2011, published 2017).

Experiments:
skin and eye mucous = details: solution containing 9.7 to 11.4 mg/L of chlorine dioxide
[1] = 276.5 mg/L aqueous solution
[2] = 276.5 mg/L aqueous solution; remark: listed apart in the source

**Q.** What does the source list for [O][Cl+][O-] [chlorine dioxide]?
**A.** 48 hour skin and eye mucous irritating score (skin and eye mucous): 0; toxicity of aqueous solution [1]: actually non-toxic; accumulated toxicity [2]: no significant accumulated toxicity

**Q.** Which “oral LD50” value (mice) does the source give for stable chlorine dioxide here?
**A.** > 10000 mg/kg
